Measurements taken from patent US11400107B2, “Cancer treatments” (NuCana plc, priority 2016, dated 2022).

System: primary acute myeloid leukaemia (AML) blasts
Assay: In vitro cytotoxicity assay (LD50) in primary acute myeloid leukaemia cells
Assay type: cell-based, human
Conditions: primary AML blasts, 48 h; concentration required to kill 50% of the tumour cells in culture
Procedure: ProTide compounds, as defined herein, and the comparator ProTide compound NUC-1031 were assayed for their cytotoxic effects on primary cultures of acute myeloid leukaemia (AML) blasts. LD50 values (the concentration required to kill 50% of the tumour cells in culture) were calculated in respect of the ProTide compounds of the invention, and the parent compounds from which they are derived. […] The LD50 values of the ProTide compounds as defined herein (and their parent compounds) were compared with the comparator ProTide NUC-1031 and its parent compound gemcitabine.
Bone marrow samples were collected in ethylenediaminetetraacetic acid (EDTA) from newly diagnosed, previously untreated, acute myeloid leukaemia (AML) patients. AML blasts were enriched by density gradient centrifugation using Histopaque (Sigma, Poole, UK) and were subsequently maintained in Roswell Park Memorial Institute medium (RPMI) supplemented with 10% foetal bovine serum (FBS). Cells were treated with ProTide compounds (either as encompassed by the present invention, or the comparator ProTide NUC-1031) or with the ProTides' parent compounds at a range of experimental concentrations, and incubated for 48 h. All cultures were maintained at 37° C. in a 5% CO2 humidified atmosphere.
Cells were harvested and labelled with CD34-fluorescein isothiocyanate (FITC) (BD Biosciences, Buckingham, UK) and then resuspended in 200 μl of binding buffer containing 4 μl of annexin V labelled with allophycocyanin (APC) (eBioscience Ltd, Hatfield, UK). Apoptosis was quantified in the CD34^+ AML cells using an Accuri C6 flow cytometer (Becton Dickinson, CA, USA). At least 10,000 events were acquired and data were subsequently analysed using FlowJo software (Tree Star Inc., Ashland, Oreg., USA). All LD50 values (concentration of drug required to kill 50% of cells) were derived from the dose-response curves.

C[C@H](NP(=O)(OC[C@H]1O[C@@H](n2ccc(N)nc2=O)C(F)(F)[C@@H]1O)Oc1ccccc1)C(=O)OCc1ccccc1 (stereo partly drawn) [NUC-1031, 2′-deoxy-2′,2′-difluoro-D-cytidine-5′-O-[phenyl (benzoxy-L-alaninyl)] phosphate]
LD50: NUC-1031 0.28 μM
